Earlier results on one substance are cited in patent publication US9555113B2, “Compositions with a rheological modifier to reduce dissolution variability” (Durect Corporation, priority 2013, dated 2017).

Read-outs that look alike come from different tables or passages of the source.

On to Sucrose Acetate Isobutyrate [SAIB], for which the viscosity entry is, setting by setting: (pure SAIB at 80° C.) “approximately 600 cP”; (pure SAIB at ambient temperature (RT)) “approximately 2,000,000 cP”.
